Structures can show the parent of a compound that is named as a salt.

This assay concerns rabbits (New Zealand White). The assay can be described thus: Ocular hypotensive effect in rabbits. It is filed as in vivo, rabbit. The following applies: male New Zealand White rabbits, 0.04 mL eye drop, concentration of 1% (w/v) or lower, maximum ocular hypotensive rate vs vehicle-treated contralateral eye. The procedure:
The compound of the present invention was administered to rabbits (New Zealand White, sex: male, 3 to 6 per group) and evaluated for its ocular hypotensive effect.
Each test compound was dissolved in a vehicle 1 (1.04 g of sodium dihydrogen phosphate dihydrate and 0.5 g of sodium chloride dissolved in purified water and then adjusted to pH 7.0 with sodium hydroxide to make the total amount to 100 mL) or a vehicle 2 (2% (w/v) aqueous boric acid solution) to prepare a test compound solution with a predetermined concentration.
The intraocular pressures of the rabbits were measured using Tiolat TonoVet handheld tonometer immediately before administration of test compound. The test compound solution and the vehicle were dropped at a volume of 0.04 mL to one eye and the contralateral eye, respectively, and the intraocular pressures were measured over time in the same way as above. The rate of the intraocular pressure of the eye receiving the test compound solution to that of the eye receiving the vehicle was calculated as an ocular hypotensive rate.
Consider `C[C@H](CNCC(C)(O)c1ccccc1)NS(=O)(=O)c1ccc2cnccc2c1.Cl` (stereo partly drawn) [Example 85, N-{(2R)-1-(2-hydroxy-2-phenylpropylamino)propan-2-yl}isoquinoline-6-sulfonamide hydrochloride], for which the Ocular hypotensive activity result is on record as “++ (maximum ocular hypotensive rate of 15% or more)”.
As to `C[C@H](CN(CCc1ccccc1)C(=O)CN)NS(=O)(=O)c1ccc2cnccc2c1.Cl` [Example 100, (R)-2-amino-N-[2-(isoquinoline-6-sulfonamido)propyl]-N-phenylethylacetamide hydrochloride], the Ocular hypotensive activity result is listed as “++ (maximum ocular hypotensive rate of 15% or more)”.
Next, `C[C@H](CNCCc1cccc(Cl)c1)NS(=O)(=O)c1ccc2cnccc2c1` [Example 54, (R)—N-{1-(3-chlorophenethylamino)propan-2-yl}isoquinoline-6-sulfonamide hydrochloride]: “++ (maximum ocular hypotensive rate of 15% or more)”.
Next, `C[C@H](CNC1CCCCC1)NS(=O)(=O)c1ccc2cnccc2c1.Cl` [Example 61, (R)—N-{1-(cyclohexylamino)propan-2-yl}isoquinoline-6-sulfonamide hydrochloride]: “++ (maximum ocular hypotensive rate of 15% or more)”; `Cc1ncsc1CCNC[C@@H](C)NS(=O)(=O)c1ccc2cnccc2c1` [Example 79, (R)—N-[1-{2-(4-methylthiazol-5-yl)ethylamino}propan-2-yl]isoquinoline-6-sulfonamide dihydrochloride]: “++ (maximum ocular hypotensive rate of 15% or more)”.
Next, `C[C@H](CNC/C=C/c1ccc(Br)cc1)NS(=O)(=O)c1ccc2cnccc2c1` [Example 43, (R, E)-N-[1-{3-(4-bromophenyl)allylamino}propan-2-yl]isoquinoline-6-sulfonamide dihydrochloride]: “++ (maximum ocular hypotensive rate of 15% or more)”; `C[C@H](CNCCc1ccc(C(F)(F)F)cc1)NS(=O)(=O)c1ccc2cnccc2c1.Cl` [Example 60, (R)—N-{1-(4-trifluoromethylphenethylamino)propan-2-yl}isoquinoline-6-sulfonamide hydrochloride]: “++ (maximum ocular hypotensive rate of 15% or more)”.
In the case of `CC(C)[C@H](CNCCc1ccccc1)NS(=O)(=O)c1ccc2cnccc2c1` [Example 27, (R)—N-{3-methyl-1-(phenethylamino)butan-2-yl}isoquinoline-6-sulfonamide dihydrochloride], the Ocular hypotensive activity entry is on record as “++ (maximum ocular hypotensive rate of 15% or more)”.
Consider `C[C@H](CNCCc1cccnc1)NS(=O)(=O)c1ccc2cnccc2c1.Cl` [Example 49, (R)—N-[1-{2-(pyridin-3-yl)ethylamino}propan-2-yl]isoquinoline-6-sulfonamide hydrochloride], for which the Ocular hypotensive activity entry is listed as “++ (maximum ocular hypotensive rate of 15% or more)”.
Next, `C[C@H](CC(N)CCc1ccccc1)NS(=O)(=O)c1ccc2cnccc2c1` (single isomer, unassigned; diastereomer b) [Example 119]: “++ (maximum ocular hypotensive rate of 15% or more)”; `C[C@H](CNCC(O)COc1ccccc1)NS(=O)(=O)c1ccc2cnccc2c1` (stereo partly drawn) [Example 108, N-{(2R)-1-(2-hydroxy-3-phenoxypropylamino)propan-2-yl}isoquinoline-6-sulfonamide dihydrochloride]: “++ (maximum ocular hypotensive rate of 15% or more)”; `C[C@H](CNCCn1cncn1)NS(=O)(=O)c1ccc2cnccc2c1.Cl` [Example 68, (R)—N-[1-{2-(1H-1,2,4-triazol-1-yl)ethylamino}propan-2-yl]isoquinoline-6-sulfonamide hydrochloride]: “+ (maximum ocular hypotensive rate of 5% or more and less than 15%)”.
As for `C[C@H](CNCc1ccccc1)NS(=O)(=O)c1ccc2cnccc2c1` [Example 1, (R)—N-{1-(benzylamino)propan-2-yl}isoquinoline-6-sulfonamide dihydrochloride], the entry is “++ (maximum ocular hypotensive rate of 15% or more)”; as for `CNC(CCc1ccccc1)C[C@@H](C)NS(=O)(=O)c1ccc2cnccc2c1` (stereo partly drawn) [Example 120, N-{(2R)-4-(methylamino)-6-phenylhexan-2-yl}isoquinoline-6-sulfonamide dihydrochloride], “++ (maximum ocular hypotensive rate of 15% or more)”.
`C[C@H](CNCCc1ccoc1)NS(=O)(=O)c1ccc2cnccc2c1.Cl` [Example 67, (R)—N-[1-{2-(furan-3-yl)ethylamino}propan-2-yl]isoquinoline-6-sulfonamide hydrochloride]: the Ocular hypotensive activity entry is given as “++ (maximum ocular hypotensive rate of 15% or more)”.
Next, `C[C@H](CNCCc1ccnc2ccccc12)NS(=O)(=O)c1ccc2cnccc2c1.Cl` [Example 65]: “+ (maximum ocular hypotensive rate of 5% or more and less than 15%)”; `C=CCNC[C@@H](C)NS(=O)(=O)c1ccc2cnccc2c1` [Example 9, (R)—N-{1-(allylamino)propan-2-yl}isoquinoline-6-sulfonamide dihydrochloride]: “++ (maximum ocular hypotensive rate of 15% or more)”; `COc1cccc(CCNC[C@@H](C)NS(=O)(=O)c2ccc3cnccc3c2)c1` [Example 29, (R)—N-{1-(3-methoxyphenethylamino)propan-2-yl}isoquinoline-6-sulfonamide dihydrochloride]: “++ (maximum ocular hypotensive rate of 15% or more)”.
Next, `C[C@H](CNCCc1ccc(-c2ccccc2)cc1)NS(=O)(=O)c1ccc2cnccc2c1` [Example 92, (R)—N-[1-{2-(biphenyl-4-yl)ethylamino}propan-2-yl]isoquinoline-6-sulfonamide dihydrochloride]: “++ (maximum ocular hypotensive rate of 15% or more)”.
On to `C[C@H](CNCC(=O)c1ccccc1)NS(=O)(=O)c1ccc2cnccc2c1` [Example 104, (R)—N-{1-(2-oxo-2-phenylethylamino)propan-2-yl}isoquinoline-6-sulfonamide dihydrochloride], for which the Ocular hypotensive activity entry was “++ (maximum ocular hypotensive rate of 15% or more)”.
Next, `CCNC[C@@H](C)NS(=O)(=O)c1ccc2cnccc2c1` [Example 3, (R)—N-{1-(ethylamino)propan-2-yl}isoquinoline-6-sulfonamide dihydrochloride]: “++ (maximum ocular hypotensive rate of 15% or more)”.
Next, `C[C@H](CNCC(O)c1cccnc1)NS(=O)(=O)c1ccc2cnccc2c1` (stereo partly drawn) [Example 88, N-[(2R)-1-{2-hydroxy-2-(pyridin-3-yl)ethylamino}propan-2-yl]isoquinoline-6-sulfonamide dihydrochloride]: “+ (maximum ocular hypotensive rate of 5% or more and less than 15%)”.
Next, `C[C@H](CNCCc1cc2ccccc2o1)NS(=O)(=O)c1ccc2cnccc2c1` [Example 75, (R)—N-[1-{(2-(benzofuran-2-yl)ethylamino}propan-2-yl]isoquinoline-6-sulfonamidedihydrochloride]: “++ (maximum ocular hypotensive rate of 15% or more)”.
`C[C@H](CNCC1CCC1)NS(=O)(=O)c1ccc2cnccc2c1.Cl` [Example 16, (R)—N-{1-(cyclobutylmethylamino)propan-2-yl}isoquinoline-6-sulfonamide hydrochloride]: the Ocular hypotensive activity entry is given as “++ (maximum ocular hypotensive rate of 15% or more)”.
As for `COc1ccc(CCNC[C@@H](C)NS(=O)(=O)c2ccc3cnccc3c2)cc1` [Example 30, (R)—N-{1-(4-methoxyphenethylamino)propan-2-yl}isoquinoline-6-sulfonamide dihydrochloride], the entry is “++ (maximum ocular hypotensive rate of 15% or more)”; as for `C[C@H](CNCCc1cccs1)NS(=O)(=O)c1ccc2cnccc2c1.Cl` [Example 40, (R)—N-[1-{2-(thiophen-2-yl)ethylamino}propan-2-yl]isoquinoline-6-sulfonamide hydrochloride], “++ (maximum ocular hypotensive rate of 15% or more)”; as for `C[C@H](CNCCc1ccc(-c2ccncc2)cc1)NS(=O)(=O)c1ccc2cnccc2c1` [Example 93, (R)—N-[1-{4-(pyridin-4-yl)phenethylamino}propan-2-yl]isoquinoline-6-sulfonamide trihydrochloride], “++ (maximum ocular hypotensive rate of 15% or more)”.
Next, `C#CCNC[C@@H](C)NS(=O)(=O)c1ccc2cnccc2c1` [Example 47, (R)—N-{1-(prop-2-yn-1-ylamino)propan-2-yl}isoquinoline-6-sulfonamide dihydrochloride]: “++ (maximum ocular hypotensive rate of 15% or more)”; `CC=CCNC[C@H](C)NS(=O)(=O)c1ccc2cnccc2c1` [Example 8, (S)—N-{1-(but-2-enylamino)propan-2-yl}isoquinoline-6-sulfonamide dihydrochloride]: “++ (maximum ocular hypotensive rate of 15% or more)”.
Turning to `C[C@H](CNCC[C@@H](O)c1ccccc1)NS(=O)(=O)c1ccc2cnccc2c1.Cl` [Example 50, N—[(R)-1-{(R)-3-hydroxy-3-phenylpropylamino}propan-2-yl]isoquinoline-6-sulfonamide hydrochloride], the Ocular hypotensive activity result is “+ (maximum ocular hypotensive rate of 5% or more and less than 15%)”.

Values taken from patent US8883792B2, “Substituted isoquinoline derivative” (D. Western Therapeutics Institute, Inc., priority 2010, dated 2014).
